Measurements taken from US20010034352A1, “Piperidine-4 sulphonamide compounds” (priority 2000, published 2001).

Assays:
Format in all cases: cell-based
[1] = test system: thoracic aorta rings of a Wistar rat; assay: Vascular protective effects with respect to endothelial dysfunction induced by an inhibitor of NOS (LNA), ACh relaxation of aortic rings; settings: compound at 3×10^−9 M, LNA 3.10^−7 M, difference between percentages of maximum ACh relaxation in presence or absence of product
Description: Under standard in vitro conditions, relaxation of aortic rings caused by acetylcholine (ACh), which relaxation is totally dependent upon the presence of endothelium, reflects the production of NO (stimulated by ACh), which by diffusing to smooth muscle cells brings about arterial relaxation (Nature, 1980, 288, 373).
the first model consists of inducing inhibition of the relaxation due to ACh by blocking the enzymatic activity (endothelial NOS) responsible for the production of NO.
Vascular Protective Effects with Respect to Endothelial Dysfunction Induced by an Inhibitor of NOS
The thoracic aorta of a Wistar rat (325-375 g), anaesthetised by the intraperitoneal route using sodium pentobarbital (30 mg/kg), is removed and dissected into rings of 3 mm in length. […]
After a 90-minute stabilisation period, the preparations are contracted using phenylephrine (PHE 10^−6 M) and relaxed by adding 10^−5 M of acetylcholine in order to verify the 10 integrity of the endothelial layer. […] The preparations are again contracted using phenylephrine and, after 30 minutes, the relaxations due to acetylcholine (ACh—10^−8M to 10^−5 M) are assessed in the presence of indomethacin (10^−5M).
(§1) The relaxation values are expressed as a percentage relative to the maximum contraction caused by PHE. […]

[2] = test system: aortic rings of New Zealand rabbits; assay: Vascular protective effects with respect to endothelial dysfunction induced by a system generating O2^− (XO-Hypo), ACh relaxation of aortic rings; settings: compound at 3×10^−9 M; rabbit aortic rings; XO 3 mU/ml, Hypo 10^−4 M; difference between percentages of maximum ACh relaxation in presence or absence of product
Experimental: the second model consists of inducing oxidative stress in vitro using an enzymatic system that generates O2^− (xanthine oxidase —XO and hypoxanthine—Hypo).
The thoracic aorta of a Wistar rat (325-375 g), anaesthetised by the intraperitoneal route using sodium pentobarbital (30 mg/kg), is removed and dissected into rings of 3 mm in length. Each ring is suspended from an isometric tension sensor connected to a recording system and the initial tension applied is 2.5 g. The physiological solution used, which is thermostatically maintained at 37° C., and oxygenated (95% O2+5% CO2), comprises (in mM): NaCl 112.0, KCl 5.0, CaCl2 2.5, KH2PO4 1.0, MgSO4 1.2, NaHCO3 25.0, glucose 11.5, Ca-EDTA 0.016.
After a 90-minute stabilisation period, the preparations are contracted using phenylephrine (PHE 10^−6 M) and relaxed by adding 10^−5 M of acetylcholine in order to verify the 10 integrity of the endothelial layer. If that is confirmed, the preparations are rinsed and a concentration of the test product (or its solvent) is added to the medium, followed by 3.10^−7 M of N^G-nitro-L-arginine (LNA). The preparations are again contracted using phenylephrine and, after 30 minutes, the relaxations due to acetylcholine (ACh—10^−8M to 10^−5 M) are assessed in the presence of indomethacin (10^−5M).
as §1

[3] = test system: cGMP in rat aortic rings; assay: Assessment of aortic production of cGMP stimulated by ACh in the presence of LNA (radioimmunoassay); settings: compound at 3×10^−9 M, 30-minute incubation, ACh 10^−5 M 1 minute, LNA 3×10^−6 M, isobutylmethylxanthine 10^−5 M
Experimental: Involvement of the NO Route in the Vascular Protective Effects Detected: Assessment of Aortic Production of cGMP
By diffusing to the smooth muscle cells, the NO produced by the endothelial cells activates soluble guanylate cyclase, which brings about an increase in cyclic GMP which is responsible for relaxation.
The rat aortic rings are prepared as previously. Assessment is made of the effects of a 30-minute incubation of the compounds of the invention at different concentrations on the production of cGMP stimulated by ACh (10^−5 M—1 minute) in the presence of LNA (3×10^−6 M). The experiments are carried out in the presence of isobutylmethylxanthine (10^−5 M) in order to avoid degradation of the cGMP by phosphodiesterases. The rings are frozen in liquid nitrogen and maintained at −80° C. until the assay is carried out. The cGMP content is assessed by radioimmunoassay and expressed in relation to the amount of protein contained in the tissue (assay by the Bradford method).

Question: What does the source list for `O=S(=O)(NC1CCN(CCc2coc3ccccc23)CC1)c1cccc2cnccc12` [Example 8, N-{1-[2-(Benzofuran-3-yl)ethyl]-4-piperidyl}-5-isoquinolinesulphonamide]?
Answer: inhibition of the endothelial dysfunction induced by LNA [1]: 23%; inhibition of the endothelial dysfunction induced by the XO-Hypo combination [2]: 28.3%; increase of the production of cGMP stimulated by ACh in the presence of LNA [3]: 142.7%
